Source: US20200325177A1, “METHODS OF MAKING STREPTOGRAMIN COMPOSITIONS AND THE USE THEREOF” (THE REGENTS OF THE UNIVERSITY OF CALIFORNIA, priority 2017, published 2020)
≈ marks a conversion by molar mass, not a printed value. Where two headings read alike, the source gives them in different places.

Tests used:
Gram-Negative Organisms = assay: microbe, parasite or virus in culture; assay type: cell-based
S. aureus = assay: MIC, Gram-positive bacteria: S. aureus (strains not named); assay type: cell-based; conditions: Staphylococcus aureus, read-out: Minimal Inhibitory Concentration (MIC) S. aureus
E. faecalis = assay: MIC, Gram-positive bacteria: E. faecalis; assay type: cell-based; conditions: Enterococcus faecalis, column 1, read-out: Minimal Inhibitory Concentration (MIC) E. faecalis
[1] = system: S. aureus Vat A streptogramin; assay: MIC, Gram-positive bacteria: S. aureus Vat A streptogramin; assay type: cell-based; conditions: Staphylococcus aureus; Gram-positive; column 5; read-out: Minimal Inhibitory Concentration (MIC) S. aureus Vat A streptogramin
[2] = system: K. pneumoniae multidrug-resistant; assay: MIC, Gram-negative bacteria: K. pneumoniae multidrug-resistant; assay type: cell-based; conditions: Klebsiella pneumoniae, read-out: Minimal Inhibitory Concentration (MIC) K. pneumoniae multidrug-resistant
P. aeruginosa ATCC 27853 = assay: MIC, Gram-negative bacteria: P. aeruginosa ATCC 27853; assay type: cell-based; conditions: Pseudomonas aeruginosa, ATCC27853, read-out: Minimal Inhibitory Concentration (MIC) P. aeruginosa ATCC 27853
[3] = system: large subunit of the E. coli ribosome; assay: cryo-EM structure bound to ribosome; assay type: binding; conditions: 2.8 Angstrom resolution cryo-EM; isoquinoline sidechain reaches into the P-site
Description: FIGS. 7A-7B. […] FIG. 7B depicts the structure of SAO110224.

E. faecium ATCC 35667 = assay: MIC, Gram-positive bacteria: E. faecium ATCC 35667; assay type: cell-based; conditions: Enterococcus faecium, ATCC35667, column 2, read-out: Minimal Inhibitory Concentration (MIC) E. faecium ATCC 35667
H. influenzae ATCC 49247 = assay: MIC, Gram-negative bacteria: H. influenzae ATCC 49247; assay type: cell-based; conditions: Haemophilus influenzae, ATCC49247, read-out: Minimal Inhibitory Concentration (MIC) H. influenzae ATCC 49247
E. faecium VRE; vanA = assay: MIC, Gram-positive bacteria: E. faecium VRE; vanA; assay type: cell-based; conditions: Enterococcus faecium, column 3, read-out: Minimal Inhibitory Concentration (MIC) E. faecium VRE
[4] = system: S. aureus Linezolid-resistant; cfr; assay: MIC, Gram-positive bacteria: S. aureus Linezolid-resistant; cfr; assay type: cell-based; conditions: Staphylococcus aureus, column 9, read-out: Minimal Inhibitory Concentration (MIC) S. aureus Linezolid-resistant
[5] = system: P. aeruginosa MDR clinical isolate; assay: MIC, Gram-negative bacteria: P. aeruginosa MDR clinical isolate; assay type: cell-based; conditions: Pseudomonas aeruginosa, read-out: Minimal Inhibitory Concentration (MIC) P. aeruginosa MDR clinical isolate
S. pneumoniae = assay: MIC, Gram-positive bacteria: S. pneumoniae; assay type: cell-based; conditions: Streptococcus pneumoniae, column 10, read-out: Minimal Inhibitory Concentration (MIC) S. pneumoniae

## CC1=C\[C@@H](O)CC(=O)Cc2nc(co2)C(=O)N2CCC[C@@H]2C(=O)O[C@H]([C@H](C)COC(=O)Nc2cc3ccccc3cn2)[C@H](C)/C=C/C(=O)NC\C=C\1 [SA0110224]
Gram-Negative Organisms; Acinetobacter baumannii, ATCC19606, read-out: Minimal Inhibitory Concentration (MIC), A. baumannii ATCC 19606
  MIC: > 64 µg/mL
Gram-Negative Organisms; Escherichia coli, ATCC25922, read-out: Minimal Inhibitory Concentration (MIC), E. coli ATCC 25922
  MIC: > 64 µg/mL
Gram-Negative Organisms; Escherichia coli, read-out: Minimal Inhibitory Concentration (MIC), E. coli BAS2006, OMP C, OMP F
  MIC: 8 µg/mL (≈ 11.2 µM)
Gram-Negative Organisms; Escherichia coli, read-out: Minimal Inhibitory Concentration (MIC), E. coli olC efflux defective
  MIC: 1 µg/mL (≈ 1.4 µM)
Gram-Negative Organisms; Escherichia coli, read-out: Minimal Inhibitory Concentration (MIC), E. coli permeability mutant BAS1314, IMP4213ZAB::TN10
  MIC: 1 µg/mL (≈ 1.4 µM)
Gram-Negative Organisms; Escherichia coli, read-out: Minimal Inhibitory Concentration (MIC), E. coli ΔompC768, KanR insert
  MIC: > 64 µg/mL
Gram-Negative Organisms; Klebsiella pneumoniae, ATCC43816, read-out: Minimal Inhibitory Concentration (MIC), K. pneumoniae ATCC 43816
  MIC: > 64 µg/mL
S. aureus; first unnamed S. aureus column (c4)
  MIC: 4 µg/mL (≈ 5.6 µM)
S. aureus; fourth unnamed S. aureus column (c8)
  MIC: 4 µg/mL (≈ 5.6 µM)
S. aureus; second unnamed S. aureus column (c6)
  MIC: 4 µg/mL (≈ 5.6 µM)
S. aureus; third unnamed S. aureus column (c7)
  MIC: 8 µg/mL (≈ 11.2 µM)
E. faecalis
  MIC: > 64 µg/mL
[1]
  MIC: 16 µg/mL (≈ 22.4 µM)
[2]
  MIC: > 64 µg/mL
P. aeruginosa ATCC 27853
  MIC: > 64 µg/mL
[3]
  binding to ribosome seen in cryo-EM structure: bound to large subunit of the E. coli ribosome
E. faecium ATCC 35667
  MIC: 4 µg/mL (≈ 5.6 µM)
H. influenzae ATCC 49247
  MIC: 2 µg/mL (≈ 2.8 µM)
E. faecium VRE; vanA
  MIC: 8 µg/mL (≈ 11.2 µM)
[4]
  MIC: > 64 µg/mL
[5]
  MIC: > 64 µg/mL
S. pneumoniae
  MIC: 16 µg/mL (≈ 22.4 µM)
